The first assay relates to honeybees. Kind of assay: Test for Confirmation of Honeybee Repelling Effect 1, 2, 3 (feeding station with 40% sugar water). The settings on record: 2 % strength. It is filed as in vivo. The source says: The following were used as the test samples for Examples: 2% by weight per volume ethanol solutions of octane (a-1), tetradecane (a-2), heptadecane (a-3), nonadecane (a-4), 2-acetylfuran (b-1), 5-methyl-2-furaldehyde (b-2), furfural (b-3), furaneol (c-1), 2-acetylpyrrole (d-1), 1-benzylpyrrole (d-2), 1-octanol (e-1), 1-dodecanol (e-2), and 1-octadecanol (e-3), respectively; and 2% by weight per volume aqueous solutions of furfuryl alcohol (b-4), sotolon (c-2), and α-angelicalactone (c-3), respectively.
The following were used as the test samples for Comparative Examples: 2% by weight per volume ethanol solutions of eicosane (carbon number 20, p-1), heneicosane (carbon number 21, p-2), 2-methyloctane (branched alkane, p-3), tributyl o-acetylcitrate (p-4), and 1-methylpyrrole (p-5), respectively; and 2% by weight per volume aqueous solutions of 2-methyltetrahydrofuran-3-one (p-6) and acetic acid (p-7), respectively.
Ethanol alone and water alone were used as samples for correction.
The cotton pads 13 were impregnated with 40% sugar water (80 g), after which disposable wooden chopsticks 15 (80 mm in length) were placed over the cotton pads on the lid surface as “landing areas,” for use as “test insect (honeybee) feeding station 1” 10.
A nest box of test insects (honeybees) (1 colony: approx. 6,000 bees) was placed at the center of a glass hothouse (bottom face: 5 m×10 m, height (highest part): 3 m, temperature: 25° C.), and the aforementioned “test insect (honeybee) feeding station 1” was installed at a location 2 meters away from the nest box.
After confirming that at least five test insects (honeybees) were feeding at the above “test insect (honeybee) feeding station 1” installed in the hothouse, test 1 was conducted to measure the “approaching count (Mz)” and “landing count (My)” and calculate the “landing rate (Mx).”
Next, the “test insect (honeybee) feeding station 1” installed in the hothouse was replaced with each “test insect (honeybee) feeding station 2” which was let to stand still for 5 minutes, after which test 2 was conducted to measure the “approaching count (Nz)” and “landing count (Ny)” and calculate the “landing rate (Nx).”
Approaching count: Total number of times a honeybee has approached within 25 cm of the cotton wools at the feeding station during 5 minutes
Landing count: Total number of honeybees that have remained for at least 1 second on the cotton pads at the feeding station during 5 minutes
Landing rate (%): (Landing count/Approaching count)×100
The “repelling rate Q” and “corrected repelling rate R” were calculated from the above “landing rates” using the calculation formula below. For the “repelling rate of sample for correction” used to calculate the “corrected repelling rate R,” the repelling rate of each of the samples for correction above (ethanol alone or water alone being a solvent for the active ingredient) was used.
Repelling rate Q (%)={(Mx)−(Nx)}/(Mx)×100
Corrected repelling rate R (%)={Repelling rate of test sample−Repelling rate of sample for correction}/{100−Repelling rate of sample for correction}×100
The following were used as the test samples for Examples: 0.1% by weight per volume ethanol solutions of 3-methyl-2-butanol (e-4), carvacrol (x-1), isoeugenol (x-2), cinnamyl alcohol (x-3), diacetone alcohol (x-4), α-amylcinnamaldehyde (x-5), 3-methyl-2-butenal (x-6), valeraldehyde (x-7), ethyl cinnamate (x-8), methyl cinnamate (x-9), ethyl isovalerate (x-10), isoamyl formate (x-11), 5-ethyl-2-methylpyridine (x-12), 2-(3-phenylpropyl)pyridine (x-13), 2,6-dimethylpyridine (x-14), ß-ionone (x-15), 2-acetylthiazole (x-16), butylamine (x-17), and citronella oil (x-18), respectively; and a 0.1% by weight per volume aqueous solution of (3-amino-3-carboxypropyl)dimethylsulfonium chloride (x-19).
Turning to `O=Cc1ccco1` [b-3, furfural], the “Corrected repelling rate R (%)” value came to 93.6%.

Still in this assay, the particulars now being: Test 1; 2% by weight per volume solution.
In the case of `CCCCCCCCCCCCCCCCC` [a-3, heptadecane], the “repelling effect / repelled behaviors of honeybees (in words)” value (shortened to “repelling effect / repelled behaviors”) is “excellent repelling effect”.

Take `CC(=O)c1ccc[nH]1` [d-1, 2-acetylpyrrole]: the “repelling effect / repelled behaviors” value is “excellent repelling effect”.

Regarding `c1ccc(Cn2cccc2)cc1` [d-2, 1-benzylpyrrole], the “repelling effect / repelled behaviors” value is listed as “excellent repelling effect”.

As to `CCCCCCCCCCCCCCCCCCCC` [p-1, eicosane, reference compound], the “repelling effect / repelled behaviors” value was “not observed at all”.

Consider `CCCCCCCCCCCCCCCCCCCCC` [p-2, heneicosane, reference compound], for which the “repelling effect / repelled behaviors” value is “not observed at all”.

Consider `CCCCCCC(C)C` [p-3, 2-methyloctane, reference compound], for which the “repelling effect / repelled behaviors” value is “not observed at all”.

For the molecule `Cn1cccc1` [p-5, 1-methylpyrrole, reference compound], the “repelling effect / repelled behaviors” value was “not observed at all”.

Take `CC1OCCC1=O` (stereo not shown) [p-6, 2-methyltetrahydrofuran-3-one, reference compound]: the “repelling effect / repelled behaviors” value is on record as “not observed at all”.

Staying with this assay, now noted: Test 1; honeybees; 2% by weight per volume solution, 5 mL sprayed (active ingredient 0.1 g).
Turning to `CCCCCCCCCCCCCCCCC` [a-3, heptadecane], the “Corrected repelling rate R (%)” value was determined as 28.2%.

On to `CCCCCCCCCCCCCCCCCCC` [a-4, nonadecane], for which the “Corrected repelling rate R (%)” value is 56.7%.

As for `Cc1ccc(C=O)o1` [b-2, 5-methyl-2-furaldehyde], the “Corrected repelling rate R (%)” value came to 55.3%.

As for `CC(=O)c1ccc[nH]1` [d-1, 2-acetylpyrrole], the “Corrected repelling rate R (%)” value is on record as 37.0%.

With `c1ccc(Cn2cccc2)cc1` [d-2, 1-benzylpyrrole], the “Corrected repelling rate R (%)” value worked out at 68.3%.

Regarding `CCCCCCCCO` [e-1, 1-octanol], the “Corrected repelling rate R (%)” value came to 58.3%.

For `CCCCCCCCCCCCO` [e-2, 1-dodecanol], the “Corrected repelling rate R (%)” value came out at 84.6%.

For `CCCCCCCCCCCCCCCCCCO` [e-3, 1-octadecanol], the “Corrected repelling rate R (%)” value turned out to be 16.2%.

In the case of `CCCCCCCCCCCCCCCCCCCC` [p-1, eicosane, reference compound], the “Corrected repelling rate R (%)” value is under 0%.

For `CCCCCCCCCCCCCCCCCCCCC` [p-2, heneicosane, reference compound], the “Corrected repelling rate R (%)” value is listed as under 0%.

For `CCCCCCC(C)C` [p-3, 2-methyloctane, reference compound], the “Corrected repelling rate R (%)” value is given as under 0%.

In the case of `CCCCOC(=O)CC(CC(=O)OCCCC)(OC(C)=O)C(=O)OCCCC` [p-4, tributyl o-acetylcitrate, reference compound], the “Corrected repelling rate R (%)” value is given as under 0%.

Take `Cn1cccc1` [p-5, 1-methylpyrrole, reference compound]: the “Corrected repelling rate R (%)” value was under 0%.

Regarding `CC1OCCC1=O` (stereo not shown) [p-6, 2-methyltetrahydrofuran-3-one, reference compound], the “Corrected repelling rate R (%)” value is recorded as under 0%.

Turning to `CC(=O)O` [p-7, acetic acid, reference compound], the “Corrected repelling rate R (%)” value was under 0%.

The same assay, now with this note: Test 2; honeybees; 0.1% by weight per volume solution, 5 mL (active ingredient 5 mg).
As for `CC=Cc1ccc(O)c(OC)c1` [x-2, isoeugenol], the “Corrected repelling rate R (%)” value stood at 64.6%.

Take `CC(=O)CC(C)(C)O` [x-4, diacetone alcohol]: the “Corrected repelling rate R (%)” value came out at 20.9%.

Regarding `CCCCCC(C=O)=Cc1ccccc1` [x-5, α-amylcinnamaldehyde], the “Corrected repelling rate R (%)” value amounted to 77.8%.

On to `CC(=O)c1nccs1` [x-16, 2-acetylthiazole], for which the “Corrected repelling rate R (%)” value came to 61.7%.

Still in this assay, the particulars now being: Test 3; 0.1% by weight per volume solution, 5 mL.
With `CC(C)CO.CC(C)CO` [e-5, 2-methyl-1-propanol (isobutanol)], the “Corrected repelling rate (%) Honeybees” value stood at 88.2%.

Regarding `CC(C)CCO` [e-6, 3-methyl-1-butanol], the “Corrected repelling rate (%) Honeybees” value is on record as 65.4%.

Regarding `CCC=O` [y-11, propionaldehyde], the “Corrected repelling rate (%) Honeybees” value was 64.0%.

Turning to `CCCCCCCC=O` [y-12, n-octanal], the “Corrected repelling rate (%) Honeybees” value was 96.3%.

Turning to `C/C=C(\C)C=O` [y-13, trans-2-methyl-2-butenal], the “Corrected repelling rate (%) Honeybees” value amounted to 67.4%.

For `CCCC=O` [y-15, butylaldehyde], the “Corrected repelling rate (%) Honeybees” value came out at 51.0%.

The same assay, now with this note: Test 3; 2.0% by weight per volume solution, 5 mL.
Turning to `CCC(=O)O` [p-8, propionic acid, reference compound], the “Corrected repelling rate (%) Honeybees” value is under 0%.

In the case of `CSCCCO` [y-3, methionol], the “Corrected repelling rate (%) Honeybees” value amounted to 84.7%.

For `CC(CC=O)CCCC(C)(C)O` (stereo not shown) [y-9, hydroxycitronellal], the “Corrected repelling rate (%) Honeybees” value is listed as 92.8%.
